Data: ChEMBL document CHEMBL3991601, “The target landscape of clinical kinase drugs” (Science, 2017)
Calls of active or inactive are those of the source. Rule as the data show it, for most assays here: actives have a measured Kd and inactives only a lower limit.

Legend:
[1] = target: T1, Serine/threonine-protein kinase 3 (Homo sapiens, UniProt Q13188)
T1 sequence (Q13188 whole entry): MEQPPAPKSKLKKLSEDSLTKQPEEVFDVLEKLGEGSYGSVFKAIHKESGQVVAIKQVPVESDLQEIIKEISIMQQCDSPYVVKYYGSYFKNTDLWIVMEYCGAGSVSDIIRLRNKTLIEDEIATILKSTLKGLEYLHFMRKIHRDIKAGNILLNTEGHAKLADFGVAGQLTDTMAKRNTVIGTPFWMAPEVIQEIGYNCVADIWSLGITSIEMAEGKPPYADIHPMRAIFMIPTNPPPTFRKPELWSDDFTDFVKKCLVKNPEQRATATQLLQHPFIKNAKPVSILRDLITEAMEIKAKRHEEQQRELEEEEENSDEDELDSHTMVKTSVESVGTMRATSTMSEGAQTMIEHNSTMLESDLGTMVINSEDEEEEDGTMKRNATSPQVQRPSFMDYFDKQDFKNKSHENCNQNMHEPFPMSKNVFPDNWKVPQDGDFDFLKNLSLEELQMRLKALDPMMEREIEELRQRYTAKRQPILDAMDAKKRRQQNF

[2] = target: Cyclin-dependent kinase 5 (Homo sapiens, UniProt Q00535)
[3] = target: T2, Discoidin domain-containing receptor 2 (Homo sapiens, UniProt Q16832)
T2 sequence (Q16832 whole entry): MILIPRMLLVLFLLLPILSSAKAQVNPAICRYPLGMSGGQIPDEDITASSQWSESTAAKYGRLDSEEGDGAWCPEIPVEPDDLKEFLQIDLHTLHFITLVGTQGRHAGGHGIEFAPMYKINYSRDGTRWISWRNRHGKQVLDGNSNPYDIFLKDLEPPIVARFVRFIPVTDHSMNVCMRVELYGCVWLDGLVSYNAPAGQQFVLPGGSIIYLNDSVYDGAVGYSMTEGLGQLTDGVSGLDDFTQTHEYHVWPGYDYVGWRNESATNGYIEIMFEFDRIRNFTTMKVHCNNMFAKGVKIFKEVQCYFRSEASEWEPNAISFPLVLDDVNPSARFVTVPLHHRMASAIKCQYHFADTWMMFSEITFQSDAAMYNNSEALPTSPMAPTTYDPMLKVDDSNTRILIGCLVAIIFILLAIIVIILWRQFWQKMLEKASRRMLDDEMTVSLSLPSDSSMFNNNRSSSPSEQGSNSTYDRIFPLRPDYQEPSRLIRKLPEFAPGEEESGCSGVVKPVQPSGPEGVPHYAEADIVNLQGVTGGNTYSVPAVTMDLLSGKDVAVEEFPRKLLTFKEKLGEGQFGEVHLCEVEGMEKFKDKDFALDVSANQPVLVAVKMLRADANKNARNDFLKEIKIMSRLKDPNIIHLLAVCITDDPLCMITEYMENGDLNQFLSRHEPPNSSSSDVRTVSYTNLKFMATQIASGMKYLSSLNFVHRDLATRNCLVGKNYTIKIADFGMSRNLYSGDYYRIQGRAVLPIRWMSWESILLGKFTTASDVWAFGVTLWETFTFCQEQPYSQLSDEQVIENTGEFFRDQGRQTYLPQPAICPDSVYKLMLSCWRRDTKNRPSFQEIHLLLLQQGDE

[4] = target: T3, Serine/threonine-protein kinase Nek1 (Homo sapiens, UniProt Q96PY6)
T3 sequence (Q96PY6 whole entry): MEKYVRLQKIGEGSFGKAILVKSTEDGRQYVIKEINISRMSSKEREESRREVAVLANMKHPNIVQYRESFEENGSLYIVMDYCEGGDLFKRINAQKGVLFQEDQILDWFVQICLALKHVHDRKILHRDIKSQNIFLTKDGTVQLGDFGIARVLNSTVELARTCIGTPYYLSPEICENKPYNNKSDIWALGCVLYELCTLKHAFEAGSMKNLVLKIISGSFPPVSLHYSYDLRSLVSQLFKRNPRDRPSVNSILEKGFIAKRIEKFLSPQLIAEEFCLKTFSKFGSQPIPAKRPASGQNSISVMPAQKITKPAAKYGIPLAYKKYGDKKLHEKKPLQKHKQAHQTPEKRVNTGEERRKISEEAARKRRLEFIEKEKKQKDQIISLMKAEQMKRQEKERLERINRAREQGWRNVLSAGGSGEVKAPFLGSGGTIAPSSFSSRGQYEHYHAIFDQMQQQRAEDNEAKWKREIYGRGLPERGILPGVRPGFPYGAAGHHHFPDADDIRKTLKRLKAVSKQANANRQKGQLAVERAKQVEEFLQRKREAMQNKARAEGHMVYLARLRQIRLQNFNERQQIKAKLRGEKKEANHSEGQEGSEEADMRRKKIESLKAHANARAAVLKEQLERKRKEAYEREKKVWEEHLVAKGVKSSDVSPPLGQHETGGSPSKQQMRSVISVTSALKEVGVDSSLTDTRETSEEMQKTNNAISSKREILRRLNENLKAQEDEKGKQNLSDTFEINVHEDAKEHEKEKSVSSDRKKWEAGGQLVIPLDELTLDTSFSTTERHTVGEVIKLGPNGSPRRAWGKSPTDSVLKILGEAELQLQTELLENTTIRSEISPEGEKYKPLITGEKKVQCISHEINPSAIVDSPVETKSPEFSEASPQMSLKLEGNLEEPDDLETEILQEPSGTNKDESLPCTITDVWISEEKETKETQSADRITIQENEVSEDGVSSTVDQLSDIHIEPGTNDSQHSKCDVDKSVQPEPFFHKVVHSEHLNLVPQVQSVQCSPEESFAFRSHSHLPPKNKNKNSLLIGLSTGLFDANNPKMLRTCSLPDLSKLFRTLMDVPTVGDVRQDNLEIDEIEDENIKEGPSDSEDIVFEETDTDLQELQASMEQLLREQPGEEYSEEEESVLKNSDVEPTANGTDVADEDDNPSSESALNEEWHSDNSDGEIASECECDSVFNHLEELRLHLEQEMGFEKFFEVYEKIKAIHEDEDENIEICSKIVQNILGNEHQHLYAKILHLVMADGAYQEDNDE
Also: in the data inactive means no Kd found up to 30 µM.

Sequence of Cyclin-dependent kinase 5 (Q00535 whole entry, the tested form may be a part): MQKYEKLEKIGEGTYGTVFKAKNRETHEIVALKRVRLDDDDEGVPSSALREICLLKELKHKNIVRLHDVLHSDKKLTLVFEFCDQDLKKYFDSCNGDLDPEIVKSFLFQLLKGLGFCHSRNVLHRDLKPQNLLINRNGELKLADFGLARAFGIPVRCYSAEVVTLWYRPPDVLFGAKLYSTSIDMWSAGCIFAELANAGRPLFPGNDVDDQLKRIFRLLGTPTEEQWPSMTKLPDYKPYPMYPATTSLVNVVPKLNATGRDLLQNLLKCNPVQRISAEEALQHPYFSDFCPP

Kd [1] | Kd [2] | Kd [4] | Structure (SMILES) | Kd [3]
> 30 µM (inactive) | > 30 µM (inactive) | > 30 µM (inactive) | NC(=O)c1ccc(N(C(N)=O)c2c(F)cccc2F)nc1-c1ccc(F)cc1F [VX-702] | > 30 µM (inactive)
0.86 µM (active) | > 30 µM (inactive) | > 30 µM (inactive) | Cc1cc(Nc2nc(N[C@@H](C)c3ncc(F)cn3)ncc2Cl)n[nH]1 [AZD-1480] | > 30 µM (inactive)
> 30 µM (inactive) | > 30 µM (inactive) | > 30 µM (inactive) | COc1cc2ncnc(Nc3ccc(O)cc3)c2cc1OC [WHI-P131] | > 30 µM (inactive)
> 30 µM (inactive) | > 30 µM (inactive) | > 30 µM (inactive) | CNC(=O)c1cc(COc2nnc(Nc3ccc(Cl)cc3)c3ccoc23)ccn1 [TELATINIB] | > 30 µM (inactive)
> 30 µM (inactive) | – | > 30 µM (inactive) | Cn1c(=O)n(-c2ccc(C(C)(C)C#N)cc2)c2c3cc(-c4cnc5ccccc5c4)ccc3ncc21 [DACTOLISIB] | –
> 30 µM (inactive) | > 30 µM (inactive) | > 30 µM (inactive) | COc1cccc(Nc2ncnn3ccc(CN4CC[C@@H](N)[C@H](O)C4)c23)c1 [BMS-690514] | > 30 µM (inactive)
> 30 µM (inactive) | > 30 µM (inactive) | > 30 µM (inactive) | O[C@H]1CC[C@H](Nc2ncc3nc(Nc4c(F)cc(F)cc4F)n([C@H]4CCOC4)c3n2)CC1 [TANZISERTIB] | > 30 µM (inactive)
> 30 µM (inactive) | > 30 µM (inactive) | > 30 µM (inactive) | Cc1cc(-c2cc(OC(=O)c3ccccc3)ccc2Cl)cc2nnc(Nc3ccc(OCCN4CCCC4)cc3)nc12 [TG100-801] | > 30 µM (inactive)
> 30 µM (inactive) | – | > 30 µM (inactive) | CCN1CCN(Cc2ccc(Nc3ncc(F)c(-c4cc(F)c5nc(C)n(C(C)C)c5c4)n3)nc2)CC1 [ABEMACICLIB] | > 30 µM (inactive)
> 30 µM (inactive) | > 30 µM (inactive) | > 30 µM (inactive) | FC(F)(F)c1ccc(CNc2ccc(Cc3c[nH]c4ncc(Cl)cc34)cn2)cn1 [PEXIDARTINIB] | > 30 µM (inactive)
> 30 µM (inactive) | > 30 µM (inactive) | > 30 µM (inactive) | O=c1[nH]c([C@@H]2CCCN2)nc2c1oc1ccc(Cl)cc12 | > 30 µM (inactive)
> 30 µM (inactive) | > 30 µM (inactive) | 0.365 µM (active) | Cc1cc(C(=O)Nc2cc(Oc3ccc4nc(NC(=O)C5CC5)cn4n3)ccc2C)n(C)n1 [TAK-593] | 19.3 µM (active)
> 30 µM (inactive) | > 30 µM (inactive) | > 30 µM (inactive) | Cn1c(=O)c(F)c(Nc2ccc(I)cc2F)c2c(=O)n(C[C@@H](O)CO)cnc21 [TAK-733] | > 30 µM (inactive)
> 30 µM (inactive) | > 30 µM (inactive) | > 30 µM (inactive) | C=CC(=O)Nc1cccc(Nc2nc(Nc3ccc(N4CCN(C(C)=O)CC4)cc3OC)ncc2C(F)(F)F)c1 [ROCILETINIB] | > 30 µM (inactive)
– | – | > 30 µM (inactive) | CCN(CCCOc1ccc2c(Nc3cc(CC(=O)Nc4cccc(F)c4)n[nH]3)ncnc2c1)CCOP(=O)(O)O [BARASERTIB] | > 30 µM (inactive)

Structure (SMILES) | Kd [1] | Kd [2] | Kd [4] | Kd [3]
Cc1c(NC(=O)OC[C@@H]2COCCN2)cn2ncnc(Nc3ccc4c(cnn4Cc4cccc(F)c4)c3)c12 [AC-480] | > 30 µM (inactive) | > 30 µM (inactive) | > 30 µM (inactive) | > 30 µM (inactive)
Cn1cc(-c2[nH]c3cc(NC(=O)[C@H](N)C4CCCCC4)cc4c3c2C=NNC4=O)cn1 | > 30 µM (inactive) | > 30 µM (inactive) | > 30 µM (inactive) | > 30 µM (inactive)
CN(c1ncccc1CNc1nc(Nc2ccc3c(c2)CC(=O)N3)ncc1C(F)(F)F)S(C)(=O)=O [PF-00562271] | – | – | > 30 µM (inactive) | > 30 µM (inactive)
C[C@]1(O)C[C@@H](c2nc(-c3ccc4ccc(-c5ccccc5)nc4c3)c3c(N)nccn32)C1 [LINSITINIB] | – | – | > 30 µM (inactive) | > 30 µM (inactive)
NC[C@@](O)(c1ccc(Cl)cc1)c1ccc(-c2cn[nH]c2)cc1 [AT-13148] | > 30 µM (inactive) | > 30 µM (inactive) | > 30 µM (inactive) | > 30 µM (inactive)
COc1cc(F)c(F)c(Nc2ccc(I)cc2F)c1NS(=O)(=O)C1(C[C@H](O)CO)CC1 [REFAMETINIB] | > 30 µM (inactive) | > 30 µM (inactive) | > 30 µM (inactive) | > 30 µM (inactive)
CN1CCN(c2nc(C3=C(c4c[nH]c5ccccc45)C(=O)NC3=O)c3ccccc3n2)CC1 [SOTRASTAURIN] | > 30 µM (inactive) | > 30 µM (inactive) | > 30 µM (inactive) | > 30 µM (inactive)
CC(C)CC(=O)Nc1[nH]nc2c1CN(C(=O)C1CCN(C)CC1)C2(C)C [PHA-793887] | > 30 µM (inactive) | 0.135 µM (active) | > 30 µM (inactive) | > 30 µM (inactive)
CC1(COc2ccc3c(c2)ncn3-c2ccc3cccc(N4CCC(N)CC4)c3n2)COC1 [CRENOLANIB] | 0.743 µM (active) | – | > 30 µM (inactive) | > 30 µM (inactive)
C=CCn1c(=O)c2cnc(Nc3ccc(N4CCN(C)CC4)cc3)nc2n1-c1cccc(C(C)(C)O)n1 [ADAVOSERTIB] | – | – | > 30 µM (inactive) | > 30 µM (inactive)
CNC(=O)c1ccc(Nc2ncc(C(F)(F)F)c(NCc3nccnc3N(C)S(C)(=O)=O)n2)cc1 [DEFACTINIB] | 4.95 µM (active) | 1.41 µM (active) | > 30 µM (inactive) | > 30 µM (inactive)
CCc1nc(C(N)=O)c(Nc2ccc(N3CCC(N4CCN(C)CC4)CC3)c(OC)c2)nc1NC1CCOCC1 [GILTERITINIB] | > 30 µM (inactive) | > 30 µM (inactive) | > 30 µM (inactive) | > 30 µM (inactive)
N#CCNC(=O)c1ccc(-c2ccnc(Nc3ccc(N4CCOCC4)cc3)n2)cc1 [MOMELOTINIB] | – | > 30 µM (inactive) | > 30 µM (inactive) | > 30 µM (inactive)
O=S(=O)(c1cccc2cnccc12)N1CCCNCC1 [FASUDIL] | – | – | > 30 µM (inactive) | > 30 µM (inactive)
